Common to all, as to format: biochemical
One test concerns the target T1, human recombinant PRMT9 (Homo sapiens, UniProt Q6P2P2).
T1 construct: human recombinant PRMT9 (2–845; N-terminal FLAG-tag, C-terminal His6-tag); FLAG (N); His6 (C); purchased BPS BioScience 79124
T1 sequence (Q6P2P2 2-845): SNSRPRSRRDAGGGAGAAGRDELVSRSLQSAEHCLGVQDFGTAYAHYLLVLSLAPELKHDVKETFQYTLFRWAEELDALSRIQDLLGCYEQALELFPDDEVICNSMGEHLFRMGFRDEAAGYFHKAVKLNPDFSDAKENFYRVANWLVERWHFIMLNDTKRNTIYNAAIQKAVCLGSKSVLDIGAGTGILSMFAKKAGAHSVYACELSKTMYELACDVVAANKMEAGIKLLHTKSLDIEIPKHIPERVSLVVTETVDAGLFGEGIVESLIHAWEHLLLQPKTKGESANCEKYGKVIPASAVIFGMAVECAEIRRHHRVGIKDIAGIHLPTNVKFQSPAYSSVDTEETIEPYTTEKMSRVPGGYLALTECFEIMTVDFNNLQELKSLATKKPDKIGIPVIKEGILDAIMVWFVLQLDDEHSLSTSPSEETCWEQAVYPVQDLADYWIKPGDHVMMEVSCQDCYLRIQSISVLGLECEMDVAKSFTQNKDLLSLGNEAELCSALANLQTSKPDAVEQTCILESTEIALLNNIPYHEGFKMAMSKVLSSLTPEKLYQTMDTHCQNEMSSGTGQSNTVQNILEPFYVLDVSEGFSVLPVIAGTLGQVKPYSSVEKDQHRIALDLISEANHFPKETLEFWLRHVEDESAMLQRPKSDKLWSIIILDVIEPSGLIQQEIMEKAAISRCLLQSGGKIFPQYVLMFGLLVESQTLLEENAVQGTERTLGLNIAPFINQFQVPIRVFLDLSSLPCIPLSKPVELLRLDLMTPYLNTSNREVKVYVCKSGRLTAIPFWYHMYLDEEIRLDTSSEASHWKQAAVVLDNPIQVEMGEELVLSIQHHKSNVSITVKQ
As to the kind of experiment: AlphaLISA PRMT9 activity assay (modified BPS kit, biotinylated SF3B2 peptide). To be noted: for IC50 / PRMT9 IC50: PRMT9 0.105 μM, biotinylated SF3B2 (500–519) peptide 100 nM, SAM 25 μM; for PRMT9 inhibition (in words): in-house AlphaLISA assay. As to the method: Accordingly, all the enzymatic inhibition data were obtained by performing the assays in these optimized conditions.
The reaction was incubated for 60 min. Afterward, in each well, 5 μL of a 1:100 dilution of Primary antibody 28 (BPS BioScience, #52140Z3) in Detection buffer (BPS BioScience) and 5 μL of anti-Rabbit acceptor beads (PerkinElmer, #AL104C) were added to obtain a final concentration of 20 μg/mL.
For each incubation step, the OptiPlate was sealed with a protective foil to prevent evaporation and contamination. Donor and Acceptor beads were added to the mixture in subdued light.
The 100% activity (positive control) was reached using vehicle (DMSO), while 0% activity (negative control) was obtained without the protein. Data were analyzed by using Excel and Prism software. Values obtained for each compound are mean ± SD determined for three separate experiments.
(In general: Bead proximity is the source of the signal in Alpha formats.)

For a further test, the target named is T2, PRMT1 (Homo sapiens, UniProt Q99873).
T2 construct: PRMT1 (residues 2–371, C-terminus); with an N-terminal GST-tag; GST (N); purchased Reaction Biology Corporation
T2 sequence (Q99873 2-371): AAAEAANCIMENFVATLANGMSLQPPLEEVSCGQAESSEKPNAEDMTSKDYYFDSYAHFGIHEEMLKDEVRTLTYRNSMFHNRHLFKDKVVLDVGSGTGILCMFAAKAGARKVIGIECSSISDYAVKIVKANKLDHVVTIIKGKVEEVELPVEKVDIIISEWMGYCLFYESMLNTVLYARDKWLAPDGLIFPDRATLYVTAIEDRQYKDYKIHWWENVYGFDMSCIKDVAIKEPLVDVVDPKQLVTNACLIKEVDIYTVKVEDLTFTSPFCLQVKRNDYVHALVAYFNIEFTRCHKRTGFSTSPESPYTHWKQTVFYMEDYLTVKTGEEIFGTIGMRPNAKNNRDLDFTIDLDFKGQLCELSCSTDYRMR
As to the kind of experiment: HotSpot radioisotope-based filter assay, PRMT1. To be noted: Figure 2; from IC50 values of ref 31. How it is done:
(§1) Then, ^3H-SAM (final concentration of 1 μM) was delivered into the reaction mixture to initiate the reaction. After incubation for 60 min at 30 °C, the reaction mixture was delivered to filter-paper for detection (as assessed by scintillation). Data were analyzed using Excel and GraphPad Prism 6.0 software (GraphPad Software Inc., San Diego, CA) for IC50 curve fits using sigmoidal dose vs response - variable slope (four parameters) equations.

The next test deals with T3, PRMT6 (Homo sapiens, UniProt Q96LA8).
T3 construct: PRMT6 (residues 2–375, C-terminus); with an N-terminal GST-tag; GST (N); purchased Reaction Biology Corporation
T3 sequence (Q96LA8 2-375): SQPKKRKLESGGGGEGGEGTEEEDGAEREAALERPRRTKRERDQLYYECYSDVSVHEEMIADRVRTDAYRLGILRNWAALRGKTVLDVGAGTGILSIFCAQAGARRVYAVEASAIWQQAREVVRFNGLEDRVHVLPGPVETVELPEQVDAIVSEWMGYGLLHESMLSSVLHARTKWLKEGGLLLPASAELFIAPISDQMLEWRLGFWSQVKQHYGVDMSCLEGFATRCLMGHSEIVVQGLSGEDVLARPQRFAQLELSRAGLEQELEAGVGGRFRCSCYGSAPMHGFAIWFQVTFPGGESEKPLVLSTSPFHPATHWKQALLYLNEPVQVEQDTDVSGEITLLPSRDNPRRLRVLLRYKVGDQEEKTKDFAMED
As to the kind of experiment: HotSpot radioisotope-based filter assay, PRMT6. As to conditions: Figure 2; from IC50 values of ref 31. How it is done:
as §1

The next test addresses T4, PRMT5/MEP50 complex (Homo sapiens, UniProt O14744).
T4 construct: residues PRMT5 2–637, C-terminus, and MEP50 2–342, C-terminus; FLAG (N); purchased Reaction Biology Corporation
As to the kind of experiment: HotSpot radioisotope-based filter assay, PRMT5. As to conditions: Figure 2; from IC50 values of ref 31. As to the method: as §1

The next test addresses T5, PRMT4 (Homo sapiens, UniProt Q86X55).
T5 construct: PRMT4 (residues 2–608, C-terminus); with an N-terminal GST-tag; GST (N); purchased Reaction Biology Corporation
T5 sequence (Q86X55 2-608): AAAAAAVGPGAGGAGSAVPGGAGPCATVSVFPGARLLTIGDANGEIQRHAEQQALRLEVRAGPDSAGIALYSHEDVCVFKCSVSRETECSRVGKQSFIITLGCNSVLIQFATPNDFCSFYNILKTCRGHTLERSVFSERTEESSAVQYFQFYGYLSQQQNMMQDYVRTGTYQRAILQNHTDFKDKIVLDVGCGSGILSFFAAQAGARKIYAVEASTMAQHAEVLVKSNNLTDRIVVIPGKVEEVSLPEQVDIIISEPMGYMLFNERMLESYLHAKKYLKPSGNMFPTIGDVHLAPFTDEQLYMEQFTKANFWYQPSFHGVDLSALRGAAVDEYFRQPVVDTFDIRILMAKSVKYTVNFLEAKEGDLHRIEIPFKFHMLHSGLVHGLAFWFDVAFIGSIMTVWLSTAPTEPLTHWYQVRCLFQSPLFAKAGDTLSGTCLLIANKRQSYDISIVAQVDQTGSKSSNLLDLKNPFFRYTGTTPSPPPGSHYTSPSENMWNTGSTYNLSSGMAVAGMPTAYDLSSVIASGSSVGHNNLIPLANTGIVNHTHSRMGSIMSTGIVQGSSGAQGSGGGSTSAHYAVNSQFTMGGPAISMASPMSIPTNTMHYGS
As to the kind of experiment: HotSpot radioisotope-based filter assay, PRMT4. To be noted: Figure 2; from IC50 values of ref 31. How it is done:
as §1

Another test addresses T6, PRMT8 (Homo sapiens, UniProt Q9NR22).
T6 construct: (residues 61–394, C-terminus); with C- and N-terminal His-tags; His (N); His (C); purchased Reaction Biology Corporation
In words: HotSpot radioisotope-based filter assay, PRMT8. To be noted: Figure 2; from IC50 values of ref 31. As to the method: as §1

Another test deals with T7, PRMT3 (Homo sapiens, UniProt O60678).
T7 construct: PRMT3 (residues 2–531, C-terminus); with an N-terminal His-tag; His (N); purchased Reaction Biology Corporation
T7 sequence (O60678 2-531): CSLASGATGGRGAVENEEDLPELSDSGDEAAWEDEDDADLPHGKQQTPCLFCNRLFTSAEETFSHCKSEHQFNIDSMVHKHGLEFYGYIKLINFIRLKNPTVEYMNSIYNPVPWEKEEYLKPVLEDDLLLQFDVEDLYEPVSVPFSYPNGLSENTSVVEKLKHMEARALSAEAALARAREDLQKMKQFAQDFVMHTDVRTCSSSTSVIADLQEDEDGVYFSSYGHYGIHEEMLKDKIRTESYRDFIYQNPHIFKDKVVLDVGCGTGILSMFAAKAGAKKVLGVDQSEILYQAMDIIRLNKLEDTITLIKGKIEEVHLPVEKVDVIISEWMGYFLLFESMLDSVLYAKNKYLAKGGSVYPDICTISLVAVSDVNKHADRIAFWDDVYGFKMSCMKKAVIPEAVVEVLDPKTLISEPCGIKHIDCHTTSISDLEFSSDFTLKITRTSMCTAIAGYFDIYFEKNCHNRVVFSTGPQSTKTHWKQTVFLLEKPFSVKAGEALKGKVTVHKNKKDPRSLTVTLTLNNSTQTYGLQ
In words: HotSpot radioisotope-based filter assay, PRMT3. To be noted: Figure 2; from IC50 values of ref 31. How it is done:
as §1

Experimental findings from publication PMC10578352, “Identification of a Protein Arginine Methyltransferase 7 (PRMT7)/Protein Arginine Methyltransferase 9 (PRMT9) Inhibitor” (Journal of Medicinal Chemistry, 2023) are described below.

Entries after “also recorded” stand apart in the source; their conditions may differ.

T4 sequence (O14744 2-637): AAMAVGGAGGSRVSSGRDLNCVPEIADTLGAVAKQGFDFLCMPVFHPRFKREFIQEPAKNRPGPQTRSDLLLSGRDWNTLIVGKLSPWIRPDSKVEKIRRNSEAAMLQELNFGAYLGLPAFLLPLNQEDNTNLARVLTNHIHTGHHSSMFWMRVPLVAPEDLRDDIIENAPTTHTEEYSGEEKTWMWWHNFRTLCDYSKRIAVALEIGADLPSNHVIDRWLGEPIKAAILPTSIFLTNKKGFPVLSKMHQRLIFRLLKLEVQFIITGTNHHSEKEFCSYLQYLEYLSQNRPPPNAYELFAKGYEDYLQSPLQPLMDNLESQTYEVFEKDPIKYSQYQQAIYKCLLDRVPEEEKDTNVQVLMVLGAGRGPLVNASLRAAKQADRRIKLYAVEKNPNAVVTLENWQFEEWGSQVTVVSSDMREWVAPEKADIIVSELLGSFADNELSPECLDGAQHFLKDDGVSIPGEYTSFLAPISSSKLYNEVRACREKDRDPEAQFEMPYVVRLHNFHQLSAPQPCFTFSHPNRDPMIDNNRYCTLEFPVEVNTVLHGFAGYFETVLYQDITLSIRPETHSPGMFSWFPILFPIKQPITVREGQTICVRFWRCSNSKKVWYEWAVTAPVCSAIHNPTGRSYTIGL
T4 sequence (Q9BQA1 2-342 partner limits assumed): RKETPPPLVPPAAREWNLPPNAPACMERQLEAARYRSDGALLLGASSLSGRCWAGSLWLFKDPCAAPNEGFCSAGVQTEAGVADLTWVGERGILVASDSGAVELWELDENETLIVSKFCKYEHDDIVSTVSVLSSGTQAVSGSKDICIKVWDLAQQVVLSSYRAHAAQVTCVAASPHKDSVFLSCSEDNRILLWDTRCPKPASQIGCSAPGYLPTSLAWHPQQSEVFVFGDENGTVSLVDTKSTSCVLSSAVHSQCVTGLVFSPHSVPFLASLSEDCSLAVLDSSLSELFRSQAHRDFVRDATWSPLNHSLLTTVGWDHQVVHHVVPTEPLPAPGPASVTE
T6 sequence (Q9NR22 61-394): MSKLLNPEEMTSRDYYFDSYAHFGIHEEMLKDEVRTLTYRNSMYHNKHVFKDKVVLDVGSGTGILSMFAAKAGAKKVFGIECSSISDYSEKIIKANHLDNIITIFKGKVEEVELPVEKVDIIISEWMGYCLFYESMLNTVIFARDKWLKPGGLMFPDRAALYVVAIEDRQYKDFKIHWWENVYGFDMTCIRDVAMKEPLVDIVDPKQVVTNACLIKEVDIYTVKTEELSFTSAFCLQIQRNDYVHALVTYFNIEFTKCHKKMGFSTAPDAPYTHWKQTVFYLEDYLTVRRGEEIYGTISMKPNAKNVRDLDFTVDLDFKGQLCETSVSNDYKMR

As for `COC(=O)c1cc(O)c2cc(NC(=O)NCCCCCCNC(=N)NC[C@H]3O[C@@H](n4cnc5c(N)ncnc54)[C@H](O)[C@@H]3O)ccc2c1` [1d], at human recombinant PRMT9, the 50% inhibitory concentration (IC50) came to 1020 nM.
Take `COC(=O)c1cc(O)c2cc(NC(=O)NCCCCCCCNC(=N)NC[C@H]3O[C@@H](n4cnc5c(N)ncnc54)[C@H](O)[C@@H]3O)ccc2c1` [1e]: the “selectivity index for PRMT7 over PRMT1” value on PRMT1 was found to be 4 fold. In addition, the “selectivity index for PRMT7 over PRMT6” value on PRMT6 amounted to 56 fold. In addition, the “selectivity index for PRMT7 over PRMT5” value at PRMT5/MEP50 complex was 5 fold. Moreover, the “selectivity index for PRMT7 over PRMT4” value on PRMT4 is given as 0.28 fold. In addition, the “selectivity index for PRMT7 over PRMT8” value at PRMT8 worked out at 9 fold. Also, the IC50 on human recombinant PRMT9 turned out to be 1300 nM. For the same compound, the “selectivity index for PRMT7 over PRMT3” value on PRMT3 came to 20 fold.
With `COC(=O)c1cc(O)c2cc(NC(=O)NCCCCNC(=N)NCC[C@H]3O[C@@H](n4cnc5c(N)ncnc54)[C@H](O)[C@@H]3O)ccc2c1` [1f], the “selectivity index for PRMT7 over PRMT1” value on PRMT1 was found to be 22 fold. On PRMT6, the “selectivity index for PRMT7 over PRMT6” value amounted to 100 fold. Besides, the “selectivity index for PRMT7 over PRMT5” value on PRMT5/MEP50 complex turned out to be 0.51 fold. For the same compound, the “selectivity index for PRMT7 over PRMT4” value at PRMT4 is recorded as 0.04 fold. Besides, at PRMT8, the “selectivity index for PRMT7 over PRMT8” value came to 27 fold. In addition, on human recombinant PRMT9, the concentration for half-maximal inhibition (IC50) amounted to 1200 nM. Moreover, on PRMT3, the “selectivity index for PRMT7 over PRMT3” value stood at 46 fold.
With `COC(=O)c1cc(O)c2cc(NC(=O)NCCCCNC(=N)NCCC[C@H]3O[C@@H](n4cnc5c(N)ncnc54)[C@H](O)[C@@H]3O)ccc2c1` [1g], the “selectivity index for PRMT7 over PRMT1” value on PRMT1 worked out at 0.38 fold. Besides, at PRMT6, the “selectivity index for PRMT7 over PRMT6” value worked out at 0.93 fold. In addition, the “selectivity index for PRMT7 over PRMT5” value on PRMT5/MEP50 complex was found to be 0.17 fold. Besides, the “selectivity index for PRMT7 over PRMT4” value at PRMT4 came out at 0.002 fold. Moreover, the “selectivity index for PRMT7 over PRMT8” value at PRMT8 amounted to 0.3 fold. The IC50 at human recombinant PRMT9 was over 10000 nM. Besides, on PRMT3, the “selectivity index for PRMT7 over PRMT3” value was found to be 3 fold.
Consider `CCOC(=O)c1cc2cc(NC(=O)CNC(=O)Nc3ccc([N+](=O)[O-])cc3)ccc2[nH]1` [EML105], for which, on human recombinant PRMT9, the “PRMT9 IC50” value is on record as “no inhibition” and the “PRMT9 inhibition (in words)” value is recorded as “no PRMT9 inhibition; also recorded: no activity”.
For `COC(=O)c1cc(O)c2cc(NC(=O)Nc3ccc4cc(C(=O)OC)cc(O)c4c3)ccc2c1` [EML107] the same measures were “no inhibition” and “no PRMT9 inhibition; also recorded: no activity”.
For `O=C(Nc1ccc2cc(C(=O)O)cc(O)c2c1)Nc1ccc2cc(C(=O)O)cc(O)c2c1` [EML108], at human recombinant PRMT9, the “PRMT9 IC50” value is given as “no inhibition” and the “PRMT9 inhibition (in words)” value was “no PRMT9 inhibition; also recorded: no activity”.
With `O=C(Nc1ccc2[nH]cc(C(=O)O)c2c1)Nc1ccc2[nH]cc(C(=O)O)c2c1` [EML145], at human recombinant PRMT9, the “PRMT9 IC50” value is “no inhibition” and the “PRMT9 inhibition (in words)” value is on record as “no PRMT9 inhibition; also recorded: no activity”.
For `COC(=O)c1c[nH]c2ccc(NC(=O)CC(=O)Nc3ccc4[nH]cc(C(=O)OC)c4c3)cc12` [EML147] the same measures were “no inhibition” and “no PRMT9 inhibition; also recorded: no activity”.
On the same counts, the results for `O=C(CC(=O)Nc1ccc2[nH]cc(C(=O)O)c2c1)Nc1ccc2[nH]cc(C(=O)O)c2c1` [EML148] are “no inhibition” and “no PRMT9 inhibition; also recorded: no activity”.

A word on the IC50: it is the concentration that gives 50% inhibition.
